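Test compounds were applied to cells in 96-well plates for 48 hours at 5 doses. At the TGI there is no net growth.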
Experiments:
Test in all cases: NCI-60 cell line screen, 48 h
786-0 renal = tested on: 786-0 renal
A549 NSCLC = tested on: A549 NSCLC
EKVX NSCLC = tested on: EKVX NSCLC
HS 578T breast = tested on: HS 578T breast
MCF7 breast = tested on: MCF7 breast
NCI-H23 lung = tested on: NCI-H23 lung
NCI-H522 lung = tested on: NCI-H522 lung
RXF 393 renal = tested on: RXF 393 renal
SK-MEL-5 melanoma = tested on: SK-MEL-5 melanoma
TK-10 renal = tested on: TK-10 renal

Compound | TGI (786-0 renal) | TGI (A549 NSCLC) | TGI (EKVX NSCLC) | TGI (HS 578T breast) | TGI (MCF7 breast) | TGI (NCI-H23 lung) | TGI (NCI-H522 lung) | TGI (RXF 393 renal) | TGI (SK-MEL-5 melanoma) | TGI (TK-10 renal)
COc1ccc(N2C(=O)CC(=O)N(NC(=O)C(C)Oc3ccccc3C)C2=S)cc1 (stereo not given) | > 100 µM | > 100 µM | > 100 µM | > 100 µM | > 100 µM | > 100 µM | > 100 µM | > 100 µM | > 100 µM | > 100 µM
CC1=CCC([C@@](C)(O)CCCC(C)(C)N=C=S)CC1 (stereo not given in full) | 31.6 µM | 34.2 µM | 32.5 µM | 55.4 µM | 34.6 µM | 38.5 µM | 33.8 µM | 29.6 µM | 29.2 µM | 37.8 µM
C/C(C[n+]1ccccc1)=N\N=C(N)N | > 100 µM | > 100 µM | > 100 µM | > 100 µM | > 100 µM | > 100 µM | > 100 µM | > 100 µM | > 100 µM | > 100 µM
O=C(O)CCNc1ncnc2nc[nH]c12 | > 100 µM | > 100 µM | > 100 µM | > 100 µM | > 100 µM | > 100 µM | > 100 µM | > 100 µM | > 100 µM | > 100 µM
CC(C)c1cc2c(c(O)c1O)[C@@]1(C(=O)O)CCCC(C)(C)[C@@H]1CC2 | > 100 µM | 67.4 µM | 30.8 µM | 67.8 µM | 45.2 µM | 46.9 µM | 25.8 µM | 66.7 µM | 47.2 µM | 31.5 µM
CC(C)SC(=S)Sc1c(Cl)c(Cl)nc(Cl)c1Cl | 5.54 µM | 40.8 µM | 22.8 µM | 44.7 µM | 15.7 µM | 29 µM | 11.6 µM | 9.17 µM | 29.1 µM | 18.4 µM
CN1CCOC1c1ccccc1O (stereo not given) | > 100 µM | > 100 µM | > 100 µM | > 100 µM | > 100 µM | > 100 µM | > 100 µM | > 100 µM | > 100 µM | > 100 µM
O=S(=O)(O)C(CO)c1ccccc1 (stereo not given) (tested in a mixture with another compound) | > 100 µM | > 100 µM | > 100 µM | > 100 µM | > 100 µM | > 100 µM | > 100 µM | > 100 µM | > 100 µM | > 100 µM
Oc1cc(Cl)cc2cccnc12 | > 54.9 µM | > 100 µM | > 30.1 µM | > 48.5 µM | 7.87 µM | 33.4 µM | 5.32 µM | 42.9 µM | 13.4 µM | > 100 µM
O=[N+]([O-])C(=C(Nc1cccc2cccnc12)Nc1cccc2cccnc12)C(Cl)=C(Cl)Cl | > 100 µM | > 100 µM | > 100 µM | > 100 µM | 54.8 µM | > 100 µM | 56.3 µM | > 100 µM | 30.5 µM | > 100 µM
Cc1cccc(C)c1NC(=O)C(Cc1c[nH]c2ccccc12)NC(=O)OCc1ccccc1 (stereo not given) | 53.6 µM | 46.6 µM | 45.3 µM | > 100 µM | 95.8 µM | 70.8 µM | 72.7 µM | 36.4 µM | 28.9 µM | 43.7 µM
C=C(C(=O)OCC)C(=O)OCC | > 100 µM | > 100 µM | > 100 µM | > 100 µM | > 100 µM | > 100 µM | > 100 µM | > 100 µM | > 100 µM | > 100 µM
CCOS(C)(=O)=O | > 100 µM | > 100 µM | > 100 µM | > 100 µM | > 100 µM | > 100 µM | > 100 µM | > 100 µM | > 100 µM | > 100 µM
CC1(C)OC[C@@H](O)[C@H](C#N)CO1 | > 100 µM | > 100 µM | > 100 µM | > 100 µM | > 100 µM | > 100 µM | > 100 µM | > 100 µM | > 100 µM | > 100 µM
S=C1NC2=C(CSC/C2=C\c2cccc(Br)c2)C(c2cccc(Br)c2)N1 (stereo not given) | > 100 µM | > 100 µM | > 100 µM | > 100 µM | > 100 µM | > 100 µM | > 100 µM | > 100 µM | > 100 µM | > 100 µM
O=C1NC(N2CCOCC2)=N/C1=C\c1ccco1 | > 100 µM | > 100 µM | > 100 µM | > 100 µM | > 100 µM | > 100 µM | > 100 µM | > 100 µM | > 100 µM | > 100 µM
CC1(C)[C@@H]2CC[C@@]1(C)CN(CCC[N+](C)(C)C)C2 | > 100 µM | > 100 µM | > 100 µM | > 100 µM | > 100 µM | > 100 µM | > 100 µM | > 100 µM | > 100 µM | > 100 µM
